From article PMC5218480 (PLoS ONE, 2017)

Test system: MV-4-11 cells
Assay: Gene expression microarray analysis (Affymetrix PrimeView) and GSEA
Type: cell-based, human
Parameters: RFU PODN (11730768_x_at) / Fold change /veh PODN (11730768_x_at) / RFU LINC00158 (11744669_a_at) / Fold change /veh LINC00158 (11744669_a_at) / RFU DUSP10 (11751237_a_at) / Fold change /veh DUSP10 (11751237_a_at) / RFU ID3 (11757404_x_at) / Fold change /veh ID3 (11757404_x_at) / RFU PLEKHG5 (11737974_s_at) / Fold change /veh PLEKHG5 (11737974_s_at) / RFU LRRC4B (11730491_at) / Fold change /veh LRRC4B (11730491_at) / RFU GIMAP4 (11747438_a_at) / Fold change /veh GIMAP4 (11747438_a_at) / RFU KRT8 (11758183_x_at) / Fold change /veh KRT8 (11758183_x_at) / RFU CNN1 (11734310_a_at) / Fold change /veh CNN1 (11734310_a_at) / RFU VPS37D (11726825_at) / Fold change /veh VPS37D (11726825_at) / RFU C10orf10 (11716522_x_at) / Fold change /veh C10orf10 (11716522_x_at) / RFU KIR2DL2 /// KIR2DL4 /// KIR2DL5A /// KIR2DL5B /// KIR2DS1 /// KIR2DS2 /// KIR2DS3 /// KIR2DS4 /// KIR3DL3 /// KIR3DL3 /// KIR3DS1 (11738374_at) / Fold change /veh KIR2DL2 /// KIR2DL4 /// KIR2DL5A /// KIR2DL5B /// KIR2DS1 /// KIR2DS2 /// KIR2DS3 /// KIR2DS4 /// KIR3DL3 /// KIR3DL3 /// KIR3DS1 (11738374_at) / RFU C1QL1 (11718748_at) / Fold change /veh C1QL1 (11718748_at) / RFU TMPRSS4 (11747572_a_at) / Fold change /veh TMPRSS4 (11747572_a_at) / RFU HAMP (11756126_x_at) / Fold change /veh HAMP (11756126_x_at) / RFU RNFT2 (11725882_a_at) / Fold change /veh RNFT2 (11725882_a_at) / RFU NR4A2 (11747474_a_at) / Fold change /veh NR4A2 (11747474_a_at) / RFU ABCC12 (11746883_a_at) / Fold change /veh ABCC12 (11746883_a_at) / RFU TMEM136 (11760407_x_at) / Fold change /veh TMEM136 (11760407_x_at) / RFU CLDN22 /// WWC2 (11732394_at) / Fold change /veh CLDN22 /// WWC2 (11732394_at) / RFU HLA-DPB1 (11760878_x_at) / Fold change /veh HLA-DPB1 (11760878_x_at) / RFU SPINT1 (11716480_a_at) / Fold change /veh SPINT1 (11716480_a_at) / RFU GAP43 (11754022_s_at) / Fold change /veh GAP43 (11754022_s_at) / RFU A4GNT (11735810_at) / Fold change /veh A4GNT (11735810_at) / RFU PRB3 (11715151_x_at) / Fold change /veh PRB3 (11715151_x_at) / RFU TUBB4B (11761932_at) / Fold change /veh TUBB4B (11761932_at) / RFU CAPN14 (11732068_a_at) / Fold change /veh CAPN14 (11732068_a_at) / RFU TMCC2 (11721928_a_at) / Fold change /veh TMCC2 (11721928_a_at) / RFU IRGQ (11745062_a_at) / Fold change /veh IRGQ (11745062_a_at) / RFU FAM174B (11720279_a_at) / Fold change /veh FAM174B (11720279_a_at) / RFU TMPRSS4 (11748680_a_at) / Fold change /veh TMPRSS4 (11748680_a_at) / RFU FAM212B (11763350_a_at) / Fold change /veh FAM212B (11763350_a_at) / RFU PLEKHG5 (11743358_a_at) / Fold change /veh PLEKHG5 (11743358_a_at) / RFU ZSCAN30 (11745921_a_at) / Fold change /veh ZSCAN30 (11745921_a_at) / RFU CMKLR1 (11741424_a_at) / Fold change /veh CMKLR1 (11741424_a_at) / RFU LOC101060620 /// MAPK8IP1 (11723275_at) / Fold change /veh LOC101060620 /// MAPK8IP1 (11723275_at) / RFU SPTSSB (11747773_x_at) / Fold change /veh SPTSSB (11747773_x_at) / RFU PRSS12 (11739890_at) / Fold change /veh PRSS12 (11739890_at) / RFU BIN1 (11741810_x_at) / Fold change /veh BIN1 (11741810_x_at) / RFU WNT11 (11732464_a_at) / Fold change /veh WNT11 (11732464_a_at) / RFU C10orf10 (11716521_a_at) / Fold change /veh C10orf10 (11716521_a_at) / RFU C5orf56 (11738089_at) / Fold change /veh C5orf56 (11738089_at) / RFU CYB561 (11721691_x_at) / Fold change /veh CYB561 (11721691_x_at) / RFU ANKRD19P (11752326_a_at) / Fold change /veh ANKRD19P (11752326_a_at) / RFU OR2T12 /// OR2T33 /// OR2T8 (11738714_s_at) / Fold change /veh OR2T12 /// OR2T33 /// OR2T8 (11738714_s_at) / RFU VCAN (11748164_a_at) / Fold change /veh VCAN (11748164_a_at) / RFU JSRP1 (11732532_at) / Fold change /veh JSRP1 (11732532_at) / RFU KRTAP10-11 (11738290_x_at) / Fold change /veh KRTAP10-11 (11738290_x_at) / RFU MYO3A (11730013_a_at) / Fold change /veh MYO3A (11730013_a_at) / RFU EBF3 (11725865_a_at) / Fold change /veh EBF3 (11725865_a_at) / RFU CAMK2N1 (11719241_x_at) / Fold change /veh CAMK2N1 (11719241_x_at) / RFU C5orf56 (11738088_a_at) / Fold change /veh C5orf56 (11738088_a_at) / RFU OLFML3 (11715873_a_at) / Fold change /veh OLFML3 (11715873_a_at) / RFU LOC100653217 /// NTM (11731650_a_at) / Fold change /veh LOC100653217 /// NTM (11731650_a_at) / RFU MAPK11 (11762145_a_at) / Fold change /veh MAPK11 (11762145_a_at) / RFU FIZ1 (11724087_x_at) / Fold change /veh FIZ1 (11724087_x_at) / RFU OASL (11726364_x_at) / Fold change /veh OASL (11726364_x_at) / RFU SOX15 (11748057_x_at) / Fold change /veh SOX15 (11748057_x_at) / RFU CD79A (11719716_a_at) / Fold change /veh CD79A (11719716_a_at) / RFU HIST1H1D (11736915_at) / Fold change /veh HIST1H1D (11736915_at) / RFU CASKIN2 (11723855_a_at) / Fold change /veh CASKIN2 (11723855_a_at) / RFU LOC730098 (11760151_x_at) / Fold change /veh LOC730098 (11760151_x_at) / RFU OR4N2 (11742367_at) / Fold change /veh OR4N2 (11742367_at) / RFU PRRT2 (11749266_a_at) / Fold change /veh PRRT2 (11749266_a_at) / RFU SNX32 (11753110_a_at) / Fold change /veh SNX32 (11753110_a_at) / RFU CDHR5 (11726645_a_at) / Fold change /veh CDHR5 (11726645_a_at) / RFU RCAN1 (11760418_a_at) / Fold change /veh RCAN1 (11760418_a_at) / RFU FAM167A (11723789_a_at) / Fold change /veh FAM167A (11723789_a_at) / RFU FAM26E (11764081_at) / Fold change /veh FAM26E (11764081_at) / RFU ISYNA1 (11749810_s_at) / Fold change /veh ISYNA1 (11749810_s_at) / RFU ACY1 (11761880_at) / Fold change /veh ACY1 (11761880_at) / RFU 11764098_at / Fold change /veh 11764098_at / RFU SAMD14 (11745864_x_at) / Fold change /veh SAMD14 (11745864_x_at) / RFU NPB (11741838_a_at) / Fold change /veh NPB (11741838_a_at) / RFU TMPRSS6 (11731388_a_at) / Fold change /veh TMPRSS6 (11731388_a_at) / RFU KRTAP10-2 (11738614_at) / Fold change /veh KRTAP10-2 (11738614_at) / RFU ARHGAP8 /// PRR5-ARHGAP8 (11727945_x_at) / Fold change /veh ARHGAP8 /// PRR5-ARHGAP8 (11727945_x_at) / RFU KRTAP5-7 /// NADSYN1 (11734609_at) / Fold change /veh KRTAP5-7 /// NADSYN1 (11734609_at) / RFU RASL12 (11751679_a_at) / Fold change /veh RASL12 (11751679_a_at) / RFU CDKN2B (11736163_a_at) / Fold change /veh CDKN2B (11736163_a_at) / RFU PRF1 (11729649_at) / Fold change /veh PRF1 (11729649_at) / RFU, ZNF638 /// ZNF638-IT1 / Fold change vs veh, ZNF638 /// ZNF638-IT1 / RFU, PANK3 / Fold change vs veh, PANK3 / RFU, SH3YL1 / Fold change vs veh, SH3YL1 / RFU, ZEB2 / Fold change vs veh, ZEB2 / RFU, NRIP1 / Fold change vs veh, NRIP1 / RFU, PTTG1IP / Fold change vs veh, PTTG1IP / RFU, CAPN2 / Fold change vs veh, CAPN2 / RFU, MED14 / Fold change vs veh, MED14 / RFU, SNORA58 / Fold change vs veh, SNORA58 / RFU, C1orf63 / Fold change vs veh, C1orf63 / RFU, LRRFIP1 / Fold change vs veh, LRRFIP1 / RFU, NDUFAF7 / Fold change vs veh, NDUFAF7 / RFU, SLC12A2 / Fold change vs veh, SLC12A2 / RFU, IBTK / Fold change vs veh, IBTK / RFU, ESF1 / Fold change vs veh, ESF1 / Fold change vs veh, TMEM50B / RFU, TAOK1 / Fold change vs veh, TAOK1 / RFU, ACBD3 / Fold change vs veh, ACBD3 / RFU, TMA16 / Fold change vs veh, TMA16 / RFU, RWDD3 / Fold change vs veh, RWDD3 / RFU, BCAT1 / Fold change vs veh, BCAT1 / RFU, EDEM3 / Fold change vs veh, EDEM3 / RFU, TMEM33 / Fold change vs veh, TMEM33 / RFU, WDR75 / Fold change vs veh, WDR75 / RFU, AHCTF1 / Fold change vs veh, AHCTF1 / RFU, TFRC / Fold change vs veh, TFRC / RFU, ZDHHC17 / Fold change vs veh, ZDHHC17 / RFU, NOM1 / Fold change vs veh, NOM1 / RFU, ARL8B / Fold change vs veh, ARL8B / RFU, ZBTB11 / Fold change vs veh, ZBTB11 / RFU, TAMM41 / Fold change vs veh, TAMM41 / RFU, KIAA1704 /// LOC100996395 / Fold change vs veh, KIAA1704 /// LOC100996395 / RFU, ING1 / Fold change vs veh, ING1 / RFU, TRMT61B / Fold change vs veh, TRMT61B / RFU, FUBP3 / Fold change vs veh, FUBP3 / RFU, TP53 / Fold change vs veh, TP53 / RFU, TNKS2 / Fold change vs veh, TNKS2 / RFU, ZFP14 / Fold change vs veh, ZFP14 / RFU, ACTR2 / Fold change vs veh, ACTR2 / RFU, PPP3R1 / Fold change vs veh, PPP3R1 / RFU, PIK3R1 / Fold change vs veh, PIK3R1 / RFU, HNRNPA1 / Fold change vs veh, HNRNPA1 / RFU, RNF170 / Fold change vs veh, RNF170 / RFU, ZNF28 / Fold change vs veh, ZNF28 / RFU, RNGTT / Fold change vs veh, RNGTT / RFU, OGT / Fold change vs veh, OGT / RFU, BRD1 / Fold change vs veh, BRD1 / RFU, MARS / Fold change vs veh, MARS / RFU, ZNF655 / Fold change vs veh, ZNF655 / RFU, FAHD1 / Fold change vs veh, FAHD1 / RFU, BDP1 / Fold change vs veh, BDP1 / RFU, LRRCC1 / Fold change vs veh, LRRCC1 / RFU, ARID1A / Fold change vs veh, ARID1A / RFU, ZNF146 / Fold change vs veh, ZNF146 / RFU, ZNF330 / Fold change vs veh, ZNF330 / RFU, GPN3 / Fold change vs veh, GPN3 / RFU, C9orf123 / Fold change vs veh, C9orf123 / RFU, N4BP2L2 / Fold change vs veh, N4BP2L2 / RFU, ARFIP1 / Fold change vs veh, ARFIP1 / RFU, FAM179B / Fold change vs veh, FAM179B / RFU, BCL10 / Fold change vs veh, BCL10 / RFU, UHRF1BP1L / Fold change vs veh, UHRF1BP1L / RFU, BET1 / Fold change vs veh, BET1 / RFU, CNOT2 / Fold change vs veh, CNOT2 / RFU, ZNF268 / Fold change vs veh, ZNF268 / Fold change vs veh, ZNF507 / RFU, DGCR2 / Fold change vs veh, DGCR2 / RFU, WDSUB1 / Fold change vs veh, WDSUB1 / Fold change vs veh, HSP90B1 /// MIR3652 / RFU, ADSS / Fold change vs veh, ADSS / RFU, GK / Fold change vs veh, GK / RFU, ZNF148 / Fold change vs veh, ZNF148 / RFU, TAF9 / Fold change vs veh, TAF9 / RFU, SLC1A5 / Fold change vs veh, SLC1A5 / RFU, SLMO2 / Fold change vs veh, SLMO2 / RFU, ABCC4 / Fold change vs veh, ABCC4 / RFU, LOC101060439 /// RAP1B / Fold change vs veh, LOC101060439 /// RAP1B / RFU, RFX7 / Fold change vs veh, RFX7 / RFU, GTPBP10 / Fold change vs veh, GTPBP10 / RFU, CNEP1R1 / Fold change vs veh, CNEP1R1 / RFU, BIVM-ERCC5 /// ERCC5 / Fold change vs veh, BIVM-ERCC5 /// ERCC5 / RFU, ILF3 / Fold change vs veh, ILF3 / RFU 11762660_at / Fold change /veh 11762660_at / RFU VCAN (11757783_s_at) / Fold change /veh VCAN (11757783_s_at) / RFU DDX43 (11728927_at) / Fold change /veh DDX43 (11728927_at) / RFU KRT8 (11758188_x_at) / Fold change /veh KRT8 (11758188_x_at) / RFU NKD1 (11759106_at) / Fold change /veh NKD1 (11759106_at) / RFU SRD5A1 (11742802_a_at) / Fold change /veh SRD5A1 (11742802_a_at) / RFU TPSAB1 /// TPSB2 (11721975_s_at) / Fold change /veh TPSAB1 /// TPSB2 (11721975_s_at) / RFU GSTM3 (11746129_a_at) / Fold change /veh GSTM3 (11746129_a_at) / RFU IL23R (11737362_x_at) / Fold change /veh IL23R (11737362_x_at) / RFU TMEM51 (11727254_a_at) / Fold change /veh TMEM51 (11727254_a_at) / RFU PIWIL2 (11732686_x_at) / Fold change /veh PIWIL2 (11732686_x_at) / RFU ORM1 (11744905_x_at) / Fold change /veh ORM1 (11744905_x_at) / RFU CCDC152 (11743942_at) / Fold change /veh CCDC152 (11743942_at) / RFU ECM1 (11717891_a_at) / Fold change /veh ECM1 (11717891_a_at) / RFU IL23R (11748794_a_at) / Fold change /veh IL23R (11748794_a_at) / RFU TNFAIP8L3 (11732012_x_at) / Fold change /veh TNFAIP8L3 (11732012_x_at) / RFU MBOAT4 (11741988_at) / Fold change /veh MBOAT4 (11741988_at) / RFU 11764193_at / Fold change /veh 11764193_at / RFU TMEM53 (11763286_at) / Fold change /veh TMEM53 (11763286_at) / RFU MAGEB2 (11727129_at) / Fold change /veh MAGEB2 (11727129_at) / RFU TMEM200A (11744735_a_at) / Fold change /veh TMEM200A (11744735_a_at) / RFU CCDC152 (11751479_a_at) / Fold change /veh CCDC152 (11751479_a_at) / RFU FAM211A (11726209_a_at) / Fold change /veh FAM211A (11726209_a_at) / RFU RGS16 (11746705_a_at) / Fold change /veh RGS16 (11746705_a_at) / RFU VCAN (11755009_s_at) / Fold change /veh VCAN (11755009_s_at) / RFU RHOB (11743442_s_at) / Fold change /veh RHOB (11743442_s_at) / RFU RGS16 (11720943_a_at) / Fold change /veh RGS16 (11720943_a_at) / RFU RGS16 (11720944_at) / Fold change /veh RGS16 (11720944_at) / RFU, VPS4B / Fold change vs veh, VPS4B / RFU, CREB1 / Fold change vs veh, CREB1 / RFU, DNAJC13 / Fold change vs veh, DNAJC13 / RFU, GNAQ / Fold change vs veh, GNAQ / RFU, CDK5R1 / Fold change vs veh, CDK5R1 / RFU, ZRANB3 / Fold change vs veh, ZRANB3 / RFU, CUL4A / Fold change vs veh, CUL4A / RFU, CCNY / Fold change vs veh, CCNY / RFU, UFL1 / Fold change vs veh, UFL1 / RFU, COG3 / Fold change vs veh, COG3 / RFU, DIAPH2 / Fold change vs veh, DIAPH2 / RFU, SKA2 / Fold change vs veh, SKA2 / RFU, AFF3 / Fold change vs veh, AFF3 / RFU, LMF1 / Fold change vs veh, LMF1 / RFU, IPO11 / Fold change vs veh, IPO11 / RFU, DFFB / Fold change vs veh, DFFB / RFU, FOXP1 / Fold change vs veh, FOXP1 / RFU, CARD8 / Fold change vs veh, CARD8 / RFU, STRN3 / Fold change vs veh, STRN3 / RFU, ADK / Fold change vs veh, ADK / RFU, RASSF2 / Fold change vs veh, RASSF2 / RFU, WIPF1 / Fold change vs veh, WIPF1 / RFU, LARP1B / Fold change vs veh, LARP1B / RFU, RASA1 / Fold change vs veh, RASA1 / RFU, RB1 / Fold change vs veh, RB1 / RFU, PPFIA1 / Fold change vs veh, PPFIA1 / RFU, MAT2A / Fold change vs veh, MAT2A / RFU, CCT5 / Fold change vs veh, CCT5 / RFU, WDR92 / Fold change vs veh, WDR92 / RFU, CUX1 / Fold change vs veh, CUX1 / RFU, TTC7A / Fold change vs veh, TTC7A / RFU, TMEM135 / Fold change vs veh, TMEM135 / RFU, DEPTOR / Fold change vs veh, DEPTOR / RFU, CPM / Fold change vs veh, CPM / RFU, DNAJB6 / Fold change vs veh, DNAJB6 / RFU, CACNA2D3 / Fold change vs veh, CACNA2D3 / RFU, DTX4 / Fold change vs veh, DTX4 / RFU, TFCP2 / Fold change vs veh, TFCP2 / RFU, GMCL1 /// GMCL1P1 / Fold change vs veh, GMCL1 /// GMCL1P1 / RFU, AEBP2 / Fold change vs veh, AEBP2 / RFU, SNHG1 /// SNORD22 /// SNORD25 /// SNORD26 /// SNORD27 /// SNORD28 /// SNORD29 /// SNORD31 / Fold change vs veh, SNHG1 /// SNORD22 /// SNORD25 /// SNORD26 /// SNORD27 /// SNORD28 /// SNORD29 /// SNORD31 / Fold change (Aza/veh), C12orf56 (ProbeSet 11735607_a_at) / Fold change (ACY-1035/veh), C12orf56 (ProbeSet 11735607_a_at) / Fold change (Aza/veh), FGFR1OP (ProbeSet 11751329_s_at) / Fold change (ACY-1035/veh), FGFR1OP (ProbeSet 11751329_s_at) / Fold change (Aza/veh), VPS36 (ProbeSet 11739960_a_at) / Fold change (ACY-1035/veh), VPS36 (ProbeSet 11739960_a_at) / RFU SYPL1 (11715823_x_at) / Fold change /veh SYPL1 (11715823_x_at) / RFU IGFBP7 (11715501_s_at) / Fold change /veh IGFBP7 (11715501_s_at) / RFU REEP3 (11722064_at) / Fold change /veh REEP3 (11722064_at) / RFU IGLL1 (11728026_x_at) / Fold change /veh IGLL1 (11728026_x_at): dose or concentration left out as unconfirmed
Settings: MV-4-11 cells, 48 hours

## Nc1ccc(-c2cccs2)cc1NC(=O)c1ccc2c(c1)cc(C1CC1)n2CCN1CCOCC1 [ACY-1035]
  Fold change /veh LOC730098 (11760151_x_at): 1.00
